One experiment has as its target T1, BRD2 BD2 (Homo sapiens, UniProt P25440).
T1 construct: BRD2 BD2, BRD3 BD2 and BRD4 BD2 (Cisbio); purchased Cisbio
Put plainly: Binding assay, BRD2 BD2 to acetylated histone H4 Peptide-Biotin (EPIgeneous Binding Domain Kit B). The conditions noted are these: test compound at 300 nmol/L; for inhibition at 0.3 µM: read-out: Binding inhibition percentage BRD2 BD2. As for the experimental part: (§1) Moreover, BRD2 BD2, BRD3 BD2 and BRD4 BD2 (Cisbio), Peptide-Biotin (AnaSpec), and EPIgeneous (registered trademark) Binding Domain Kit B (Cisbio) were used to carry out an assay. That is, per well, 4 μL of BRD2 BD2, BRD3 BD2 or BRD4 BD2, which was adjusted to 20 nmol/L with Diluent buffer; 4 μL of 250 nmol/L Peptide-Biotin; 2 μL of Dilution buffer (Cisbio) containing DMSO or a test compound that was serially diluted with DMSO; 5 μL of 25 nmol/L Streptavidin-XL665; 5 μL of Anti-Gst-Eu+^3+ Cryptate Conjugate 50-fold diluted with Detection Buffer were added to a 384-well plate (Corning).
(§2) The obtained mixture was left at rest at room temperature for 20 hours, and thereafter, the fluoresence intensity at 665 nm and 620 nm was measured using Envision plate reader (Perkin Elmer), so that the inhibition percentage (%) of the test compound against the binding of a bromodomain in a bromodomain-containing protein to Peptide-Biotin was calculated. Binding inhibition percentage (%)=[1−{(fluorescence intensity at 665 nm of test compound−added well)/(fluorescence intensity at 620 nm of test compound−added well)}/{(fluorescence intensity at 665 nm of DMSO−added well)/(fluorescence intensity at 665 nm of DMSO−added well)}]×100
(§3) Moreover, using Graphpad prism 5 (GraphPad software), 50% inhibitory concentration [IC50 (nmol/L)] was calculated according to a non-linear regression analysis (log (inhibitor) vs. response—Variable slope (four parameters)).
(§4) Regarding other test compounds, each compound was diluted with DMSO to a final concentration of 300 nmol/L by the same method as that described above, and the binding inhibition percentage (%) of each test compound at 300 nmol/L against the binding of bromodomain in a bromodomain-containing protein to acetylated histone was calculated.

For the next experiment, the target named is T2, BRD3 BD1 (Homo sapiens, UniProt Q15059).
T2 construct: BRD2 BD1, BRD3 BD1 and BRD4 BD1 (Cisbio); purchased Cisbio
Put plainly: Binding assay, BRD3 BD1 to acetylated histone H4 Peptide-Biotin (EPIgeneous Binding Domain Kit A). The conditions noted are these: test compound at 300 nmol/L; for inhibition at 0.3 µM: read-out: Binding inhibition percentage BRD3 BD1. As for the experimental part: (§5) BRD2 BD1, BRD3 BD1 and BRD4 BD1 (Cisbio), [Lys(Ac)5/8/12/16]-Histone H4(1-25)-GSGSK (Biotin) (hereinafter referred to as “Peptide-Biotin,” AnaSpec), and EPIgeneous (registered trademark) Binding Domain Kit A (Cisbio) were used to carry out an assay. That is to say, per well, 4 μL of BRD2 BD1, BRD3 BD1 or BRD4 BD1, which was adjusted to 20 nmol/L with Diluent buffer; 4 μL of 25 nmol/L Peptide-Biotin; 2 μL of Dilution buffer (Cisbio) containing dimethyl sulfoxide (DMSO) or a test compound that was serially diluted with DMSO; 5 μL of 2.5 nmol/L Streptavidin-d2; and 5 μL of Anti-Gst-Eu+^3+ Cryptate Conjugate 50-fold diluted with Detection Buffer were added to a 384-well plate (Corning).
as §2, §3, §4

In another experiment the target is T3, BRD4 BD2 (Homo sapiens, UniProt O60885).
T3 construct: BRD2 BD2, BRD3 BD2 and BRD4 BD2 (Cisbio); purchased Cisbio
Put plainly: Binding assay, BRD4 BD2 to acetylated histone H4 Peptide-Biotin (EPIgeneous Binding Domain Kit B). The conditions noted are these: test compound at 300 nmol/L; for inhibition at 0.3 µM: read-out: Binding inhibition percentage BRD4 BD2. As for the experimental part:
as §1, §2, §3, §4

The target in the next experiment is T4, BRD3 BD2 (Homo sapiens, UniProt Q15059).
T4 construct: BRD2 BD2, BRD3 BD2 and BRD4 BD2 (Cisbio); purchased Cisbio
Nature of the experiment: Binding assay, BRD3 BD2 to acetylated histone H4 Peptide-Biotin (EPIgeneous Binding Domain Kit B). The settings on record: test compound at 300 nmol/L; for inhibition at 0.3 µM: read-out: Binding inhibition percentage BRD3 BD2. As for the experimental part:
as §1, §2, §3, §4

The next experiment concerns the target T5, BRD4 BD1 (Homo sapiens, UniProt O60885).
T5 construct: BRD2 BD1, BRD3 BD1 and BRD4 BD1 (Cisbio); purchased Cisbio
Nature of the experiment: Binding assay, BRD4 BD1 to acetylated histone H4 Peptide-Biotin (EPIgeneous Binding Domain Kit A). The conditions noted are these: test compound at 300 nmol/L; for inhibition at 0.3 µM: read-out: Binding inhibition percentage BRD4 BD1. The method, then:
as §5, §2, §3, §4

A further experiment has as its target T6, BRD2 BD1 (Homo sapiens, UniProt P25440).
T6 construct: BRD2 BD1, BRD3 BD1 and BRD4 BD1 (Cisbio); purchased Cisbio
Put plainly: Binding assay, BRD2 BD1 to acetylated histone H4 Peptide-Biotin (EPIgeneous Binding Domain Kit A). The settings on record: test compound at 300 nmol/L; for inhibition at 0.3 µM: read-out: Binding inhibition percentage BRD2 BD1. The method, then: as §5, §2, §3, §4

T2 sequence (Q15059 34-140 limits assumed): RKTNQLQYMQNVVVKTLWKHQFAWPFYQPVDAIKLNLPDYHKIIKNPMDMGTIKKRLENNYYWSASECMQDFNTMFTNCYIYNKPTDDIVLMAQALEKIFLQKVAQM
T1 sequence (P25440 344-453 limits assumed): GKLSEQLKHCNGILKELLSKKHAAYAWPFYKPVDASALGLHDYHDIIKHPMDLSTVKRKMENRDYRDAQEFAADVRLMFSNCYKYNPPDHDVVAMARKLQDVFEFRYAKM
T6 sequence (P25440 74-180 limits assumed): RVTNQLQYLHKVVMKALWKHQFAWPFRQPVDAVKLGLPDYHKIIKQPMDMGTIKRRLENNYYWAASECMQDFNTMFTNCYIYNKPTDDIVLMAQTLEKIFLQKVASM
T4 sequence (Q15059 306-415 limits assumed): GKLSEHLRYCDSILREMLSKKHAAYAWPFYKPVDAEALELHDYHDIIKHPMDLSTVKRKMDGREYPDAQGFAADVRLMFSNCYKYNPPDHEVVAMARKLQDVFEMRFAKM

Turning to `CCn1c(=O)cc(C2CC2)c2cc(-n3c(-c4ccc(C(F)(F)F)cc4)c[nH]c3=O)ccc21` [Example 268, 4-cyclopropyl-1-ethyl-6-(2-oxo-5-(4-(trifluoromethyl)phenyl)-2,3-dihydro-1H-imidazol-1-yl)quinolin-2(1H)-one], the inhibition at 0.3 µM at BRD2 BD2 is 86%; at BRD3 BD1, 62%; on BRD4 BD2, 87%; at BRD3 BD2 it was 92%; at BRD4 BD1, 73%; on BRD2 BD1 it was 48%.

Regarding `CCn1c(=O)cc(C2CC2)c2cc(-n3c(-c4ccc(Cl)cc4)cn(C)c3=O)ccc21` [Example 269, 6-(5-(4-chlorophenyl)-3-methyl-2-oxo-2,3-dihydro-1H-imidazol-1-yl)-4-cyclopropyl-1-ethylquinolin-2(1H)-one], the inhibition at 0.3 µM on BRD2 BD2 came out at 85%; at BRD3 BD1, 58%; at BRD4 BD2, 87%; at BRD3 BD2 it was 92%; at BRD4 BD1, 71%; on BRD2 BD1, 36%.

For `CCn1c(=O)cc(N2CCOCC2)c2cc(-n3c(-c4ccc(C(F)(F)F)cc4)cn(C)c3=O)ccc21` [Example 270, 1-ethyl-6-(3-methyl-2-oxo-5-(4-(trifluoromethyl)phenyl)-2,3-dihydro-1H-imidazol-1-yl)-4-(morpholin-4-yl)quinolin-2(1H)-one], the inhibition at 0.3 µM amounted to 89% on BRD2 BD2; 94% on BRD3 BD1; 89% at BRD4 BD2; 91% on BRD3 BD2; 94% at BRD4 BD1; 87% at BRD2 BD1.

On to `CCn1c(=O)cc(C2CC2)c2cc(-n3c(-c4ccc(Cl)cc4)c[nH]c3=O)ccc21` [Example 271, 6-(5-(4-chlorophenyl)-2-oxo-2,3-dihydro-1H-imidazol-1-yl)-4-cyclopropyl-1-ethylquinolin-2(1H)-one], for which the inhibition at 0.3 µM at BRD2 BD2 amounted to 88%; at BRD3 BD1 it was 72%; at BRD4 BD2, 88%; at BRD3 BD2 it was 92%; at BRD4 BD1, 77%; at BRD2 BD1, 60%.

Take `CCn1c(=O)cc(N2CCOCC2)c2cc(-n3c(-c4ccc(C(F)(F)F)cc4)c[nH]c3=O)ccc21` [Example 272, 1-ethyl-6-(2-oxo-5-(4-(trifluoromethyl)phenyl)-2,3-dihydro-1H-imidazol-1-yl)-4-(morpholin-4-yl)quinolin-2(1H)-one]: the inhibition at 0.3 µM came to 89% at BRD2 BD2; 93% on BRD3 BD1; 90% on BRD4 BD2; 91% on BRD3 BD2; 93% on BRD4 BD1; 87% on BRD2 BD1.

Take `CCn1c(=O)cc(N2CCOCC2)c2cc(-n3c(-c4ccc(C)cc4)cn(C)c3=O)ccc21` [Example 273, 1-ethyl-6-(3-methyl-5-(4-methylphenyl)-2-oxo-2,3-dihydro-1H-imidazol-1-yl)-4-(morpholin-4-yl)quinolin-2(1H)-one]: the inhibition at 0.3 µM on BRD2 BD2 came out at 90%; at BRD3 BD1 it was 94%; at BRD4 BD2, 89%; at BRD3 BD2 it was 93%; at BRD4 BD1, 94%; on BRD2 BD1, 93%.

On to `CCn1c(=O)cc(C2CC2)c2cc(-c3cccnc3-c3ccccc3)ccc21` [Example 278, 4-cyclopropyl-1-ethyl-6-(2-phenylpyridin-3-yl)quinolin-2(1H)-one], for which the inhibition at 0.3 µM at BRD2 BD2 worked out at 89%; at BRD3 BD1, 94%; at BRD4 BD2 it was 89%; at BRD3 BD2, 91%; on BRD4 BD1, 93%; at BRD2 BD1, 83%.

With `CCn1c(=O)cc(N2CCOCC2)c2cc(-c3cccnc3-c3ccccc3)ccc21` [Example 279, 1-ethyl-4-(morpholin-4-yl)-6-(2-phenylpyridin-3-yl)quinolin-2(1H)-one], the inhibition at 0.3 µM on BRD2 BD2 stood at 88%; on BRD3 BD1, 93%; at BRD4 BD2, 89%; at BRD3 BD2, 91%; at BRD4 BD1 it was 93%; at BRD2 BD1 it was 91%.

Consider `CCn1c(=O)cc(C2CC2)c2cc(N3C(=O)C(C)C(=O)N3c3ccccc3)ccc21` (stereo not drawn) [Example 280, 1-(4-cyclopropyl-1-ethyl-2-oxo-1,2-dihydroquinolin-6-yl)-4-methyl-2-phenylpyrazolidine-3,5-dione], for which the inhibition at 0.3 µM on BRD2 BD2 came out at 88%; on BRD3 BD1 it was 90%; on BRD4 BD2, 90%; at BRD3 BD2 it was 92%; on BRD4 BD1, 93%; at BRD2 BD1 it was 83%.

Regarding `CCC1C(=O)N(c2ccccc2)N(c2ccc3c(c2)c(C2CC2)cc(=O)n3CC)C1=O` (stereo not drawn) [Example 281, 1-(4-cyclopropyl-1-ethyl-2-oxo-1,2-dihydroquinolin-6-yl)-4-ethyl-2-phenylpyrazolidine-3,5-dione], the inhibition at 0.3 µM on BRD2 BD2 worked out at 89%; at BRD3 BD1, 92%; on BRD4 BD2 it was 88%; on BRD3 BD2, 91%; at BRD4 BD1 it was 94%; on BRD2 BD1 it was 87%.

Regarding `CCn1c(=O)cc(C2CC2)c2cc(-n3c(=O)cc(C)n3-c3ccccc3)ccc21` [Example 282a, 4-Cyclopropyl-1-ethyl-6-(3-methyl-5-oxo-2-phenyl-2,5-dihydro-1H-pyrazol-1-y 1)quinolin-2(1H)-one], the “Binding inhibition percentage BRD2 BD2” value at BRD2 BD2 stood at 90%. Moreover, the “Binding inhibition percentage BRD3 BD1” value at BRD3 BD1 worked out at 94%. Moreover, on BRD4 BD2, the “Binding inhibition percentage BRD4 BD2” value is recorded as 89%. Further, the “Binding inhibition percentage BRD3 BD2” value at BRD3 BD2 amounted to 91%. Further, the “Binding inhibition percentage BRD4 BD1” value on BRD4 BD1 came to 95%. For the same compound, the “Binding inhibition percentage BRD2 BD1” value at BRD2 BD1 is on record as 94%.

Take `CCn1c(=O)cc(C2CC2)c2cc(-n3c(C)cc(=O)n3-c3ccccc3)ccc21` [Example 282b, 4-Cyclopropyl-1-ethyl-6-(5-methyl-3-oxo-2-phenyl-2,3-dihydro-1H-pyrazol-1-yl)quinolin-2(1H)-one]: the inhibition at 0.3 µM was determined as 88% on BRD2 BD2; 89% at BRD3 BD1; 87% on BRD4 BD2; 92% on BRD3 BD2; 91% at BRD4 BD1; 71% at BRD2 BD1.

With `CCn1c(=O)cc(C2CC2)c2cc(-c3nc(C)[nH]c3-c3ccccc3)ccc21` [Example 283, 4-cyclopropyl-1-ethyl-6-(2-methyl-5-phenyl-1H-imidazol-4-yl)quinolin-2(1H)-one], the inhibition at 0.3 µM on BRD2 BD2 was found to be 86%; on BRD3 BD1 it was 87%; on BRD4 BD2, 87%; at BRD3 BD2 it was 92%; on BRD4 BD1 it was 90%; on BRD2 BD1 it was 68%.

In the case of `CCn1c(=O)cc(C2CC2)c2cc(-c3nccnc3-c3ccccc3)ccc21` [Example 284, 4-cyclopropyl-1-ethyl-6-(3-phenylpyrazin-2-yl)quinolin-2(1H)-one], the inhibition at 0.3 µM turned out to be 88% on BRD2 BD2; 93% at BRD3 BD1; 89% on BRD4 BD2; 92% on BRD3 BD2; 93% on BRD4 BD1; 83% at BRD2 BD1.

The record behind these values is patent US10987349B2, “Antitumor agent and bromodomain inhibitor” (FUJIFILM Corporation, priority 2016, dated 2021).
